Values belong to the compound of their own block, whether it stands above or below them.
Assays:
[1] = target: T1, chymotrypsin (a mixture of the α form and δ′ forms) (Bos taurus, UniProt P00766); assay: p-NPA hydrolysis by optical stopped-flow spectroscopy (release of p-NP); type: biochemical; conditions: weighted average of α and δ′-chymotrypsin
T1 construct: Chymotrypsin (a mixture of the α form and δ′ forms); purchased Sigma (St. Louis, Mo.)
Protocol: (§1) Optical Stopped-Flow Measurements. These measurements were performed on an SFM-4 instrument (Bio-Logic, Claix, France), using an observation wavelength of 664 nm for monitoring the demetalation of chlorophyll. The two stepper motor-driven syringes used were advanced at 3.5 mL/s each, for an instrument dead time of 3.3 ms. All experiments were carried out at room temperature (22±1° C.).
Enzymatic reactions. The limited solubility of p-NPA in purely aqueous solutions necessitated the use of 20% (v/v) methanol in the reaction mixture. […] These solutions were mixed in a 1:1 ratio with 32 μM chymotrypsin in water for a final pH of 7.8, which corresponds to the pH optimum of the enzyme. […] Experiments on bradykinin were carried out in an analogous manner, but in purely aqueous solution, and by using 20% (v/v) acetic acid in water as makeup solvent. […] Substrate concentrations given below represent the values in the reaction mixture, i.e., after the first mixing step. […]
Measurements of kobs as a function of substrate concentration were also carried out by stopped-flow spectroscopy, using the release of the yellow p-NP moiety as optical probe. In contrast to the ESI-MS experiments, these optical studies cannot discern the two forms of the enzyme, and therefore the measured data represent a weighted average of the substrate conversion caused by a and δ′-chymotrypsin. […]

[2] = target: T2, α-chymotrypsin (Bos taurus, UniProt P00766); assay: pre-steady-state hydrolysis of p-NPA by chymotrypsin, on-line kinetic ESI-MS; type: biochemical; conditions: fit of kobs to Equation 12, pH 7.8, 20% methanol, 22 °C
T2 construct: Peaks labeled with α and δ′ correspond to α- and δ′-chymotrypsin, respectively; purchased Sigma (St. Louis, Mo.)
Excerpt: (§2) Chymotrypsin is a member of the serine protease family. ^86-88 Ser195 represents the reactive nucleophile in the active site of this enzyme. Although the physiological role of chymotrypsin is to serve as an endopeptidase, it also catalyzes the hydrolysis of esters, including numerous synthetic substrate analogs. […] Subsequently, Ser195 forms a covalent bond with the carbonyl carbon of the substrate, thus releasing the first hydrolysis product P1. The rate constant of this acylation step is denoted as k2. The subsequent de-acylation has a rate constant of k3, and it leads to regeneration of the free enzyme by hydrolysis of the Ser195-ester bond, through release of the second hydrolysis product P2. For conditions where S is present in large excess, it can be shown that the concentration of P1 as a function of time t in the pre-steady-state regime is given by Equation 9^58, 59: [P1](t)=C1(1−exp(−kobst))+C2t (9) and the concentration-time profile of the covalent EP2 complex can be expressed as Equation 10: [EP2](t)=C3(1−exp(−kobst)) (10). Consequently, the sum of the concentrations of free enzyme and ES complex are given by Equation 11: ([Efree]+[ES](t)=C4exp(−kobst)+C5 (11). C1, . . . , C5 in these expressions are constants, and kobs is given by Equation 12: [formula] where [S] is the substrate concentration. Measurements of kobs as a function of substrate concentration allow the determination of the parameters k2, k3, and Kd in Scheme 8.
(§3) On-line kinetic ESI-MS experiments. ESI-MS-based kinetic experiments were carried out on a custom built continuous flow mixing apparatus described in FIG. 2. Briefly, this setup consists of two concentric capillaries, that are connected to sample injection syringes. Reactions are initiated by mixing of two solutions at the outlet of the inner capillary. The reaction time is determined by the solution flow rate, and by the distance between the mixing region and the end of the outer capillary. For experiments in kinetic mode, the inner capillary is steadily withdrawn from the end of the outer capillary, while the mass spectrometer is set to monitor selected m/z values, corresponding to specific solution-phase species, as a function of time. In spectral mode, the inner capillary is set at specific distances from the end of the outer capillary, such that entire mass spectra can be obtained for selected reaction times.
(§4) For the experiments described here, both reactant solutions were introduced into the apparatus at 20 μL/min using syringe pumps (Harvard Apparatus, Saint Laurent, QC) for a total flow rate of 40 μL/min after the mixer. […]

[3] = target: T3, δ′-chymotrypsin (Bos taurus, UniProt P00766); assay: as above; type: biochemical; conditions: fit of kobs to Equation 12, pH 7.8, 20% methanol, 22 °C
T3 construct: Peaks labeled with α and δ′ correspond to α- and δ′-chymotrypsin, respectively; purchased Sigma (St. Louis, Mo.)
Excerpt: as §2, §3, §4

[4] = target: T4, chymotrypsin (Bos taurus, UniProt P00766); conditions: previously reported, cited from earlier work
T4 construct: Chymotrypsin (a mixture of the α form and δ′ forms); purchased Sigma (St. Louis, Mo.)

[5] = refolding of ubiquitin from the A state, kinetic mode ESI-MS
Protocol: (§5) For demetalation experiments, syringe 1 contained 40 μM chlorophyll in methanol and syringe 2 contained HCl in methanol at concentrations ranging from 30 to 100 mM. Both syringes were advanced at 30 μL/min for a total flow rate 60 μL/min in the reaction capillary. Ubiquitin refolding studies were carried out by having syringe 1 filled with 20 μM protein in 46% water, 50% methanol, and 4% acetic acid. Syringe 2 contained water. The two syringes were advanced at 20 and 50 μL/min, respectively, for a total flow rate of 70 μL/min. Final solution conditions after mixing ere 14.3% methanol and 1.1% acetic acid.
The A state was populated by exposing the protein to 50% methanol and 4% acetic acid; refolding was initiated by mixing with an excess volume of water. ESI mass spectra of ubiquitin for different times after initiation of refolding are depicted in FIG. 7. […] This spectrum is practically indistinguishable from that of the protein prior to initiation of refolding (data not shown) and very similar to ubiquitin A state spectra that have been published previously.^14, 51 As refolding proceeds, the relative abundance of highly charged protein ions decreases and that of the […] and 7+ ions increases (FIGS. 7B,C). The final spectrum was recorded off-line 5 min after initiation of refolding in a manual mixing experiment.
The diffusion coefficient of ubiquitin can be estimated to be around D=1×10^−10 m^2/s.^52 According to condition 7, this implies that diffusion effects on the observed kinetics are negligible in an experimental time window up to τ≈2 s. The data can therefore be fitted based on eq 5 (solid lines in FIG. 8). C(τ) expressions for the 13+ and 12+ions were generated by assuming the model function C(t)=a1 exp(−kobst)+a0, whereas the analysis of the 8+ and 7+ ions was based on C(t)=b1(1−exp(−kobst))+b0. […] Instead, the kinetic profiles level off at ˜20% of their initial values. This effect can be attributed to a subpopulation of slow-folding ubiquitin molecules that contain non-native cis-proline isomers.^53 Proline isomerization, taking place on the order of tens of seconds, 54 is the rate-limiting step for the refolding of this subpopulation. […] Processes occurring on such a slow time scale are beyond the range accessible by our rapid mixing setup.

[6] = demetalation of chlorophyll a in acidic methanol, kinetic mode ESI-MS; type: physicochemical; conditions: HCl, quadratic fit
Protocol: as §5
On-Line Kinetic ESI-MS Measurements. These measurements were carried out using a custom-built continuous-flow mixing apparatus that is based on two concentric capillaries (FIG. 1).
Instrument Performance in Kinetic Mode. […]
The apparatus depicted in FIG. 1 was used for monitoring the kinetics of chlorophyll demetalation in methanol solution for acid concentrations ranging from 15 to 50 mM. […] Nevertheless, it is clear that the temporal resolution of our novel mixing device exceeds that of other on-line ESI-MS techniques, which so far allowed rate constants up to ˜25 s^−1 to be measured.^16

[7] = demetalation of chlorophyll a in acidic methanol, optical stopped-flow spectroscopy; type: physicochemical; conditions: 664 nm, quadratic fit
Protocol: as §1
Instrument Performance in Kinetic Mode. The demetalation of chlorophyll a in acidic solution is a well-characterized process, during which the central magnesium of the porphyrin is displaced by two protons.^40-42 This reaction represents a convenient test system, because it allows kinetic measurements by ESI-MS and by standard optical stopped-flow absorption spectroscopy. When studied under pseudo-first-order conditions, the rate constant of the reaction is given by kobs=k[H^+]^2. The intrinsic rate constant k in this expression is known to be strongly solvent-dependent.^41, 42

[8] = read-out: dissociation constant Kd
[9] = much higher buffer concentrations

Kd [1]: 1600 ± 100 µM | k2 [1]: 3.6 ± 0.2 s⁻¹ | k2 (acylation rate constant) [2]: 3.2 ± 0.3 s⁻¹ | Kd [2, 8]: 1400 ± 200 µM | k2 (acylation rate constant) [3]: 3.7 ± 0.3 s⁻¹ | Kd [3, 8]: 1700 ± 200 µM
Compound: CC(=O)Oc1ccc([N+](=O)[O-])cc1 [p-NPA, para-nitrophenyl acetate]
Kd [4, 9]: 7000 µM | k2 [4, 9]: 3 s⁻¹ | k3 [4]: 0.03 s⁻¹

Compound: ubiquitin
refolding kobs ([5]; 8+ ion, 14.3% methanol, 1.1% acetic acid): 5.3 s⁻¹ | refolding kobs ([5]; 9+ ion): 5.3 s⁻¹ | refolding kobs ([5]; 12+ ion): 5.2 s⁻¹ | refolding kobs ([5]; 13+ ion): 5.1 s⁻¹ | refolding kobs, average value ([5]; average of the four fits): 5.2 s⁻¹

Compound: C=Cc1c(C)c2cc3nc(c4c5[n-]c(cc6nc(cc1[n-]2)C(C)=C6CC)c(C)c5C(=O)[C@@H]4C(=O)OC)[C@@H](CCC(=O)OC/C=C(\C)CCC[C@H](C)CCC[C@H](C)CCCC(C)C)[C@@H]3C.[Mg+2] [chlorophyll a, Chlorophyll a]
intrinsic rate constant k of demetalation (kobs=k[H+]^2) [6]: 0.048±0.002 mM^−2s^−1 | intrinsic rate constant k of demetalation [7]: 0.050±0.001 mM^−2 s^−1
